IC50 data for 57 compounds are collected here from the supplement of paper PMC3493320.

Structures are written as SMILES.

Usually IC50 stands for the concentration needed to halve the response being measured.

The subject of the assay is NCI-H295R. Briefly: IC50 (antiproliferative, ATP content). As to conditions: 48 h. Put shortly:
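Cell viability of adrenocortical carcinoma cells was assessed as ATP by CellTiter-Glo luminescence. Cells at 1500 per well in 1536-well plates, in serum-free DMEM with ITS, received compounds by pin transfer at 8 final concentrations (0.6 nM–46 µM) after overnight culture and were then held 48 h at 37 °C, 5% CO2. IC50 was calculated by logistic fitting against vehicle and positive-control wells, compounds with no concentration response being recorded as above the top dose.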
In the case of `CC(C)CCCC(C)CCCC(C)CCCCC(C)CCCC(C)CCCC(C)C` (configuration not stated), the IC50 was more than 46 µM.
Next, `[C@]13([C@@](C(=O)CO)(CC[C@H]1[C@@H]2CCC=4[C@@]([C@H]2[C@H](C3)O)(\C=C/C(C=4)=O)C)O)C`: more than 46 µM.
Next, `CCOCCn1c(N2CCCN(C)CC2)nc2ccccc21.O=C(O)/C=C/C(=O)O.O=C(O)/C=C/C(=O)O`: more than 46 µM; `CCCCC[C@H](O)/C=C/[C@H]1[C@H](O)CC(=O)[C@@H]1CCCCCCC(=O)O`: more than 46 µM; `NC(=O)NC(=O)Cc1ccccc1`: more than 46 µM.
As for `O=[C@](O)[C@@]3(C)[C@@]1([H])[C@@](CCC3)(C)[C@]2([H])C(C=[C@@]([C@@H](C)C)CC2)=CC1`, the figure is more than 46 µM; as for `OC[C@@H](O)[C@@H](O)[C@@H](CO)O`, more than 46 µM.
Consider `CC(=O)NCCCS(=O)(=O)[O-].CC(=O)NCCCS(=O)(=O)[O-].[Ca+2]`, for which the IC50 is more than 46 µM.
As for `CC(O)[C@H]1CC[C@H]2[C@@H]3CC[C@@H]4C[C@@H](O)CC[C@]4(C)[C@H]3CC[C@]12C` (some centres not stated), the figure is more than 46 µM; as for `Br.COc1c2c(cc3c1OCO3)CCN(C)C2`, more than 46 µM; as for `O[C@H]1[C@](CC2)(C)[C@@](C)(C)[C@@H]2C1`, more than 46 µM.
With `Cc1cc(C(=O)NNCc2ccccc2)no1`, the concentration for half-maximal inhibition (IC50) was more than 46 µM.
In turn, `CCc1ncnc2cc(OC)c(OC)cc12` came in with a half-maximal inhibitory concentration (IC50) of more than 46 µM.
Next, `C[C@H]1[C@H]2CC[C@H]3[C@@H]4CC=C5C[C@@H](N(C)C)CC[C@]5(C)[C@H]4CC[C@]23CN1C`: more than 46 µM; `CS(=O)(=O)OCC(O)C(O)COS(C)(=O)=O` (configuration not stated): more than 46 µM.
As for `CCC(C)(CN(C)C)OC(=O)c1ccccc1.Cl` (configuration not stated), the figure is more than 46 µM.
Next, `O=c1ccc2ccccc2o1`: more than 46 µM; `CCn1nc(C(=O)O)c(=O)c2cc3c(cc21)OCO3`: more than 46 µM; `CO/N=C(\C(=O)N[C@@H]1C(=O)N2C(C(=O)[O-])=C(CSc3nc(=O)c([O-])nn3C)CS[C@H]12)c1csc(N)n1.O.O.O.[Na+].[Na+]`: more than 46 µM.
The compound `CN(C(=O)CCCOc1ccc2[nH]c(=O)ccc2c1)C1CCCCC1` came in with a half-inhibitory concentration (IC50) of more than 46 µM.
As for `CCC1(CC)C(=O)NC(=O)N(C)C1=O`, the figure is more than 46 µM; as for `O=C([O-])c1cc2cc(Cc3cccnc3)ccc2o1.[Na+]`, more than 46 µM; as for `CC[N+](CC)(CCNC(=O)C(=O)NCC[N+](CC)(CC)Cc1ccccc1Cl)Cc1ccccc1Cl.[Cl-].[Cl-]`, more than 46 µM.
Next, `Nc1nc2c(ncn2COC(CO)CO)c(=O)[nH]1`: more than 46 µM; `CCCCC[C@@H](O)C1C(=O)OC(C)C(O)/C=C/C=C/C=C/C=C/C=C(\C)C(O)C(O)C(O)C[C@H](O)C[C@H](O)C[C@H](O)C[C@H](O)C[C@@H]1O` (some centres not stated): more than 46 µM; `CCN[C@@H]1C[C@H](N)[C@@H](OC2OC(CN)=CCC2N)[C@H](O)[C@H]1O[C@H]1OC[C@](C)(O)[C@H](NC)[C@H]1O.CCN[C@@H]1C[C@H](N)[C@@H](OC2OC(CN)=CCC2N)[C@H](O)[C@H]1O[C@H]1OC[C@](C)(O)[C@H](NC)[C@H]1O.O=S(=O)(O)O.O=S(=O)(O)O.O=S(=O)(O)O.O=S(=O)(O)O.O=S(=O)(O)O` (some centres not stated): more than 46 µM.
`CC(=O)Oc1c(C)c(C)c2c(c1C)CCC(C)(CCCC(C)CCCC(C)CCCC(C)C)O2` (configuration not stated) displayed an IC50 of more than 46 µM.
As for `F[C@]1([C@](C)2C=C3)[C@@H](O)C[C@@]([C@]([C@@](CO)=O)(O)[C@H]4C)(C)[C@](C4)([H])[C@@]([H])1CCC2=CC3=O`, the figure is more than 46 µM; as for `O=C([O-])CCC1=C(C)C/3=N\C1=C/C2=C(CCC([O-])=O)C(C)=C(/C=C(C(C=C)=C4C)\N=C4/C=C(C(C=C)=C5C)\N\C5=C3)N2.[Na+].[Na+]`, more than 46 µM.
For `c1cnc(N2CCN(Cc3ccc4c(c3)OCO4)CC2)nc1`, the IC50 was more than 46 µM.
As for `Nc1nc(=O)n([C@@H]2CS[C@H](CO)O2)cc1F`, the figure is more than 46 µM.
Next, `Cc1[nH]c(=O)c(C#N)cc1-c1ccncc1`: more than 46 µM; `CC(C)NCC(O)COc1cccc2[nH]ccc12` (configuration not stated): more than 46 µM.
Next, `CC(=O)OCC(=O)[C@@]1(OC(C)=O)[C@@H](C)C[C@H]2[C@@H]3C[C@H](F)C4=CC(=O)C=C[C@]4(C)[C@@]3(F)[C@@H](O)C[C@@]21C`: more than 46 µM; `CC1OC(C)OC(C)O1` (configuration not stated): more than 46 µM.
In turn, `CC(C)Cc1ccc(C(C)C(=O)O)cc1` (configuration not stated) registered a concentration for half-maximal inhibition (IC50) of more than 46 µM.
Next, `O=C(NCC(O)CO)c1c(I)c(C(=O)NCC(O)CO)c(I)c(N(CCO)C(=O)CO)c1I` (configuration not stated): more than 46 µM; `CCCCC(CC)CCC(CC(C)C)OS(=O)(=O)[O-].[Na+]` (configuration not stated): more than 46 µM.
Next, `NS(=O)(=O)c1cc(C2(O)NC(=O)c3ccccc32)ccc1Cl` (configuration not stated): more than 46 µM; `C[C@H]1O[C@H]1P(=O)([O-])[O-].[Ca+2]`: more than 46 µM; `CCOC(=O)C1=C[C@@H](OC(CC)CC)[C@H](NC(C)=O)[C@@H](N)C1.O=C(O)C(O)C(O)C(=O)O`: more than 46 µM.
Turning to `CN(C)CCN(Cc1cccs1)c1ccccn1.Cl`, the 50% inhibitory concentration (IC50) was more than 46 µM.
`Cc1ccc(C(=O)C(C)CN2CCCCC2)cc1.Cl` (configuration not stated) showed an IC50 of more than 46 µM.
Next, `NC[C@@H]1CC[C@@H](N)[C@@H](O[C@H]2[C@H](O)[C@@H](O[C@H]3O[C@H](CO)[C@@H](O)[C@H](N)[C@H]3O)[C@H](N)C[C@@H]2N)O1`: more than 46 µM; `CCN(CC)C(=O)N[C@H]1C[C@@H]2c3cccc4[nH]cc(c34)C[C@H]2N(C)C1`: more than 46 µM; `Cc1nnc(NS(=O)(=O)c2ccc(N)cc2)s1`: more than 46 µM.
Next, `CC1(C)S[C@@H]2[C@H](NC(=O)C(C(=O)[O-])c3ccsc3)C(=O)N2[C@H]1C(=O)[O-].[Na+].[Na+]` (some centres not stated): more than 46 µM; `C[C@@]1(CC2)[C@H](OC(C)=O)C[C@H]2[C@](C)1C`: more than 46 µM; `CC1(C)S[C@@H]2[C@H](NC(=O)C(N)c3ccccc3)C(=O)N2[C@H]1C(=O)OC1OC(=O)c2ccccc21.Cl` (some centres not stated): more than 46 µM.
As for `COc1ccc2c3c1O[C@H]1[C@@H](O)C=C[C@H]4[C@@H](C2)NCC[C@@]341`, the 50% inhibitory concentration (IC50) was more than 46 µM.
As for `CC(C(=O)O)c1ccc(-c2ccccc2)c(F)c1` (configuration not stated), the figure is more than 46 µM.
Next, `CCOc1cc(N)c(Cl)cc1C(=O)NCC1CN(Cc2ccc(F)cc2)CCO1.O=C(O)CC(O)(CC(=O)O)C(=O)O` (configuration not stated): more than 46 µM.
Next, `O=C1N([C@@H](CC8=CC=CC=C8)C(N3CCC[C@@]23[H])=O)[C@@]2(O)O[C@]([C@H](C)C)1N[C@]([C@@H]6C[C@]([C@]7([H])N(C)C6)([H])C5=C4C(C7)=CNC4=CC=C5)=O`: more than 46 µM.
Turning to `CCCCCCCCCCCCCCCCCC(=O)O`, the IC50 was more than 46 µM.
As for `CCC(=O)[C@@]1(C)[C@H](C)C[C@H]2[C@@H]3CCC4=CC(=O)C=C[C@]4(C)[C@H]3[C@@H](O)C[C@@]21C`, the figure is more than 46 µM; as for `COC(=O)c1cncn1C(C)c1ccccc1.Cl` (configuration not stated), more than 46 µM.
`O=S([C@](CN1C=CN=N1)(C)[C@H]([C@]([O-])=O)N2C3=O)([C@@]([H])2C3)=O.[Na+]` gave a half-inhibitory concentration (IC50) of more than 46 µM.
